Test results reported in patent publication US12291508B2, “Hydrazide containing nuclear transport modulators and uses thereof” (Karyopharm Therapeutics Inc., priority 2011, dated 2025).

What was measured:
[1] = molecular target: T1, CRM1-mediated nuclear export (Homo sapiens, UniProt O14980); test: RevGFP assay, inhibition of nuclear export; assay type: cell-based; conditions: U2OS-RevGFP cells, about 1 hr incubation; read-out: Rev Export
T1 construct: endogenous in cells; host or cells: U2OS-RevGFP cells
Procedure: The ability of exemplary compounds of the invention to inhibit CRM1-mediated nuclear export was assessed in a RevGFP assay. Rev is a protein from human immunodeficiency virus type 1 (HIV-1) and contains a nuclear export signal (NES) in its C-terminal domain and a nuclear localization signal (NLS) in its N-terminal domain. Nuclear export of Rev protein is dependent on the classical NES/CRM1 pathway (Neville et al. 1997).
In this assay, U2OS-RevGFP cells were seeded onto clear-bottomed, black, 384-well plates the day before the experiment. Compounds were serially diluted 1:2 in DMEM, starting from 40 μM in a separate, 384-well plate, and then transferred onto the cells. The cells were incubated with compound for about 1 hr before fixation with 3.7% formaldehyde and nuclei staining with Hoechst 33258. The amount of GFP in cell nuclei was measured and the IC50 of each compound was determined (Kau et al. 2003).

[2] = Pharmacokinetic (PK) assay, plasma AUC in mice; assay type: in vivo; conditions: mouse, plasma, 10 mg/kg po
Procedure: AUC. Blood was collected from mice (N=3) to contribute to the total of 10 time points (pre-dose, 5 min, 15 min, 30 min, 1 hour, 2 hours, 4 hours, 8 hours, 12 hours and 24 hours post dose). Mice were bled on a rotating basis, each mouse contributing 3 time points to the blood collection. At the designated time points, animals were anaesthetized under isoflurane, and approximately 110 μL of blood per time point was collected via retro-orbital puncture into pre-cooled K2EDTA (anti-coagulant) tubes. Blood samples were put on wet ice and centrifuged (2000 g, 5 min at 4° C.) to obtain plasma within 30 minutes of sample collection. All samples were stored frozen at approximately −80° C. until analysis. Prior to analysis, samples were mixed with internal standard (dexamethasone) in acetonitrile, vortexed, centrifuged, and supernatant was injected for analysis. Concentration of compounds in plasma was determined using LC-MS-MS instrumentation (API 4000, Triple Quadruple with electrospray ionization; Acuity Ultra Performance Liquid Chromatography column C18, with MeOH and formic acid as organic solvents). AUC values were calculated using WinNonlin Professional 6.2 software package, non-compartmental pharmacokinetic model NCA200.

[3] = Brain to Plasma (B:P) ratio in mice; assay type: in vivo; conditions: mouse, brain/plasma, 10 mg/kg po, 2 hours post-dose
Procedure: Brain to Plasma (B:P) Ratio. […] Following collection, brain tissue was rinsed with cold saline, dried on filter paper, weighed and snap-frozen by placing on dry ice. All samples were stored frozen at approximately −80° C. until analysis. […] Plasma samples were treated with the identical method (except homogenization step) and the concentration of compound in each matrix was calculated based on generated standard curves.

[4] = system: MM.1S multiple myeloma cell line; test: CellTiter 96 AQueous One Solution cell proliferation assay, MM.1S; assay type: cell-based; conditions: Homo sapiens, MM1.S, 72 h of treatment, read-out: Cytotoxicity Assay
Description: The CellTiter 96® AQueous One Solution cell proliferation assay (Promega) was used on MM.1S multiple myeloma cell line to study the cytotoxic and cytostatic properties of the compounds. The assay is based on the cleavage of the tetrazolium salt, MTS, in the presence of an electron-coupling reagent PES (phenazine ethosulfate). The MTS tetrazolium compound is bioreduced by cells into a colored formazan product that is soluble in tissue culture medium. This conversion is presumably accomplished by NADPH or NADH produced by dehydrogenase enzymes in metabolically active cells. Assays are performed by adding a small amount of the CellTiter 96® AQueous One solution reagent directly to culture wells, incubating for 1-4 hours and then recording the absorbance at 490 nm with a 96-well plate reader.
The cells were seeded at 5×10^3 to 1.5×10^4 cells in each well of a 96-well plate in 100 μL of fresh culture medium and adherent cells were allowed to attach overnight. The stock solutions of the compounds were diluted in cell culture medium to obtain eight concentrations of each drug, ranging from 1 nM to 30 μM and DMSO at less than 1% v/v was used as a negative control. The resulting drug solutions were transferred onto the cells. After 72 h of treatment, 20 μl of CellTiter 96® AQueous reagent was added into each well of the 96-well assay plates and the plate was incubated at 37° C. for 1-4 hours in a humidified, 5% CO2 atmosphere. Then the absorbance of each well was recorded at 490 nm using a 96-well plate reader. In most cases, the assay was performed in triplicate and the results were presented as half maximal inhibitory concentration (IC50). Optical density versus compound concentration was plotted and analyzed using non-linear regression equations (IDBS XLfit) and the IC50 for each compound was calculated.

T1 sequence (O14980 whole entry): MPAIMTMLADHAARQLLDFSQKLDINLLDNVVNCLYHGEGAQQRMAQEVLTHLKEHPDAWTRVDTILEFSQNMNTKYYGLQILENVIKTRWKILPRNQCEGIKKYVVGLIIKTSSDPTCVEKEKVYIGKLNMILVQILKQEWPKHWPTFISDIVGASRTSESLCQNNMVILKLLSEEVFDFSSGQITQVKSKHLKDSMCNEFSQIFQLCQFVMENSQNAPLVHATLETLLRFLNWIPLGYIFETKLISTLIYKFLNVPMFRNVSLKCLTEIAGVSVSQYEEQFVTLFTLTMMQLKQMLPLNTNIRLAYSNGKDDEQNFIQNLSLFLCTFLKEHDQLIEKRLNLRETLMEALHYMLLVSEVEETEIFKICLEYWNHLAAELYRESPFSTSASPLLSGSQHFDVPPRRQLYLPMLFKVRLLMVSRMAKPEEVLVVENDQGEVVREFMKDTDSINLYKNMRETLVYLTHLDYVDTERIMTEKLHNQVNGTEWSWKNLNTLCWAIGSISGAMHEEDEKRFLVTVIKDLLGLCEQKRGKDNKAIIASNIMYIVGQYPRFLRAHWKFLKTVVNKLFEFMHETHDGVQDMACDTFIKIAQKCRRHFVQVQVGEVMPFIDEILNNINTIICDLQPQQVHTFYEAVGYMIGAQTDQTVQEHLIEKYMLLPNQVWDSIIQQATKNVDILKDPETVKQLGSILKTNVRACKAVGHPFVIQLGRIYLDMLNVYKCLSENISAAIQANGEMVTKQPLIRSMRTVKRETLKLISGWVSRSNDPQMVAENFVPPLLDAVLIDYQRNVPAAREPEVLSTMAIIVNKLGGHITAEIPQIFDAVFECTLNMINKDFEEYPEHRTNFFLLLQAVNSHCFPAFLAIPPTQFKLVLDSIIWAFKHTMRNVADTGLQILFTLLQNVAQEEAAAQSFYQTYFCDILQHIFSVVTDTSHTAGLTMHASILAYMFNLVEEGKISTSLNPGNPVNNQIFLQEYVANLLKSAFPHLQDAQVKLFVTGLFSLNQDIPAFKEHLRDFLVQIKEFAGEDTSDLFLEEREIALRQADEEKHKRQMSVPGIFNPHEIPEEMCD

- IC50 [1]: ≤ 1 µM
- AUC(0-inf) [2]: 12200 ng·h/mL
- Kp at 2 h [3]: 1.5
Compound: CN(NC(=O)/C=C\n1cnc(-c2cc(C(F)(F)F)cc(C(F)(F)F)c2)n1)c1ccccn1 [Compound I-7, (Z)-3-(3-(3,5-bis(trifluoromethyl)phenyl)-1H-1,2,4-triazol-1-yl)-N‘-methyl-N’-(pyridin-2-yl)acrylohydrazide]
- IC50 [4]: ≤ 1 µM
